Measured values taken from US9648878B2, “Herbicidal agents containing flufenacet” (BAYER CROPSCIENCE AG, priority 2012, dated 2017).

Assays:
[1] = test system: LOLSS resistant to HRAC group A; experiment: Greenhouse post-emergence herbicidal action on resistant Lolium biotype (HRAC group A resistant); format: in vivo, Lolium spp.; settings: post-emergence (PO, BBCH 11); dose g of AS/ha: flufenacet 60, aclonifen 150, diflufenican 37.5, (A)+(B)+(C) 60+150+37.5, pinoxaden+cloquintocet-mexyl 60+15, mesosulfuron+iodosulfuron+mefenpyr 15+3+45
Protocol: (§1) In the standard implementation of the test, seeds of various broad-leaved weed and weed grass biotypes (origins) were sown in an 8-13 cm diameter pot filled with natural soil of a standard field soil (loamy silt; non-sterile) and covered with a covering soil layer of about 1 cm. The pots were then cultivated in a greenhouse (12-16 h light, temperature day 20-22° C., night 15-18° C.) until the time of application. The pots were treated on a laboratory track sprayer with spray liquors comprising the compositions according to the invention, mixtures of the prior art or the components applied individually. Application of the active compounds or active compound combinations formulated as WG, WP, EC or otherwise was carried out at the appropriate growth stages of the plants. The amount of water used for spray application was 100-600 I/ha. After the treatment, the plants were returned to the greenhouses.
(§2) About 3 weeks after the application, the soil action or/and foliar action was assessed visually according to a scale of 0-100% in comparison to an untreated comparative group: 0%=no noticable effect compared to the untreated comparative group; 100%=full effect compared to the untreated comparative group.
(§3) 2. Post-emergence action against weeds: seeds of various broad-leaved weed and weed grass biotypes (origins) were sown in an 8-13 cm diameter pot filled with natural soil of a standard field soil (loamy silt; non-sterile) and covered with a covering soil layer of about 1 cm. […]
(§4) Insofar as herbicidal effects of the compositions according to the invention compared to mixtures of the prior art or compared to components applied individually against economically important mono- and dicotyledonous harmful plants were the center of attention, the synergistic herbicidal activities were calculated using Colby's formula (cf. S. R. Colby; Weeds 15 (1967), 20-22): E^C=(A+B+C)−(A×B+A×C+B×C)/100+(A×B×C)/10000 […]
(§5) Δ=difference (%) of the measured value (%) to the expected value (%) (measured value minus expected value) […]

[2] = test system: LOLSS resistant to HRAC group B; experiment: Greenhouse post-emergence herbicidal action on resistant Lolium biotype (HRAC group B resistant); format: in vivo, Lolium spp.; settings: post-emergence (PO, BBCH 11); dose g of AS/ha: flufenacet 60, aclonifen 150, diflufenican 37.5, (A)+(B)+(C) 60+150+37.5, pinoxaden+cloquintocet-mexyl 60+15, mesosulfuron+iodosulfuron+mefenpyr 15+3+45
Protocol: as §1, §2, §3, §4, §5

Structure (SMILES): Nc1c([N+](=O)[O-])ccc(Oc2ccccc2)c1Cl [aclonifen (B), 2-chloro-6-nitro-3-phenoxybenzenamine]
- herbicidal effect (visual score 0-100% vs untreated), LOLSS resistant to HRAC group A [1]: 5%
- herbicidal effect (visual score 0-100% vs untreated), LOLSS resistant to HRAC group B [2]: 38%

Structure (SMILES): O=C(Nc1ccc(F)cc1F)c1cccnc1Oc1cccc(C(F)(F)F)c1 [diflufenican (C), N-(2,4-difluorophenyl)-2-[3-(trifluoromethyl)phenoxy]-3-pyridinecarboxamide]
- herbicidal effect (visual score 0-100% vs untreated), LOLSS resistant to HRAC group A [1]: 23%
- herbicidal effect (visual score 0-100% vs untreated), LOLSS resistant to HRAC group B [2]: 35%

Structure (SMILES): CC(C)N(C(=O)COc1nnc(C(F)(F)F)s1)c1ccc(F)cc1 [flufenacet (A), N-(4-fluorophenyl)-N-(1-methylethyl)-2-[[5-(trifluoromethyl)-1,3,4-thiadiazol-2-yl]oxy]acetamide]
- herbicidal effect (visual score 0-100% vs untreated), LOLSS resistant to HRAC group A [1]: 18%
- herbicidal effect (visual score 0-100% vs untreated), LOLSS resistant to HRAC group B [2]: 60%
